In patent US20080031893A1 (Metaproteomics, LLC, priority 2006, published 2008):
Marks after values point to notes of the source that are not given here.

Assays:
[1] = test system: 3T3-L1 adipocytes; experiment: Adiponectin secretion from TNFα-treated 3T3-L1 adipocytes; type: cell-based, murine
Protocol: For two days, the cells were allowed grow to reach confluence. […] (3) 0.5 μM dexamethasone and (4) 10 μg/ml insulin (MDI medium). […] Adiponectin Assay—The adiponectin secreted into the medium was quantified using the Mouse Adiponectin Quantikine® Immunoassay kit with no modifications (R&D Systems, Minneapolis, Minn.). […] Statistical Calculations and Interpretation—All assays were preformed in duplicate. […] Differences among the doses and test agents were determined using the Student's t-test without correction for multiple comparisons; the nominal five percent probability of a type I error was selected.

[2] = test system: 3T3-L1 adipocytes; experiment: IL-6 secretion in LPS/3T3-L1 adipocytes; type: cell-based, murine; conditions: 100 ng LPS/ml
[3] = test system: 3T3-L1 adipocytes; experiment: Adiponectin secretion in LPS/3T3-L1 adipocytes; type: cell-based, murine; conditions: for % Stimulation (maximum) of adiponectin secretion: 0.625 μg/ml; for adiponectin secretion: LPS, any dose tested
[4] = test system: 3T3-L1 adipocytes; experiment: Lipogenesis in 3T3-L1 adipocytes (Oil Red O / BODIPY); type: cell-based, murine; conditions: for adipogenic response of hops compounds: 10, 5, 4 or 2 μg/ml, spent hops 50 μg/ml
Protocol: Prior to experiments, cells were cultured in DMEM containing 10% FBS-HI added 50 units penicillin/ml and 50 μg streptomycin/ml, and maintained in log phase prior to experimental setup. Cells were grown in a 5% CO2 humidified incubator at 37° C. Components of the pre-confluent medium included (1) 10% FBS/DMEM containing 4.5 g glucose/L; (2) 50 U/ml penicillin; and (3) 50 μg/ml streptomycin. Growth medium was made by adding 50 ml of heat inactivated FBS and 5 ml of penicillin/streptomycin to 500 ml DMEM. This medium was stored at 4° C. Before use, the medium was warmed to 37° C. in a water bath.
3T3-T1 cells were seeded at an initial density of 6×10^4 cells/cm^2 in 24-well plates. For two days, the cells were allowed grow to reach confluence. Following confluence, the cells were forced to differentiate into adipocytes by the addition of differentiation medium; this medium consisted of (1) 10% FBS/DMEM (high glucose); (2) 0.5 mM methylisobutylxanthine; (3) 0.5 μM dexamethasone and (4) 10 μg/ml insulin (MDI medium). After three days, the medium was changed to post-differentiation medium consisting of 10 μg/ml insulin in 10% FBS/DMEM.
AcE was partially dissolved in dimethyl sulfoxide (DMSO) and added to the culture medium to achieve a concentration of 50 μg/ml at Day 0 of differentiation and throughout the maturation phase (Days 6 or 7 (D6/7)). Whenever fresh media were added, fresh test material was also added. DMSO was chosen for its polarity and the fact that it is miscible with the aqueous cell culture media.
Oil Red O Staining—Triglyceride content of D6/D7-differentiated 3T3-L1 cells was estimated with Oil Red O according to the method of Kasturi and Joshi [Kasturi, R. and Joshi, V. C. […] Monolayer cells were washed with PBS (phosphate buffered saline, Mediatech) and fixed with 10% formaldehyde for ten minutes. Fixed cells were stained with an Oil Red O working solution of three parts 0.6% Oil Red O/isopropanol stock solution and two parts water for one hour and the excess stain was washed once with water. The resulting stained oil droplets were extracted from the cells with isopropanol and quantified by spectrophotometric analysis at 540 nm (MEL312e BIO-KINETICS READER, Bio-Tek Instruments, Winooski, Vt.).
Briefly, media were removed and cells were washed once with non-sterile PBS. A stock 1000× BODIPY/DMSO solution was made by dissolving 1 mg BODIPY in 1 ml DMSO (1,000 μg BODIPY/ml). […] After 15 min on an orbital shaker (DS-500, VWR Scientific Products, South Plainfield, N.J.) at ambient temperature, the cells were washed with 100 μl PBS followed by the addition of 100 μl PBS for reading for spectrofluorometric determination of BODIPY incorporation into the cells. […]

[5] = test system: 3T3-L1 adipocytes; experiment: Adiponectin secretion from insulin-resistant 3T3-L1 adipocytes; type: cell-based, murine
Protocol: 3T3-L1 cells were seeded at an initial density of 1×10^4 cells/cm^2 in 96-well plates. For two days, the cells were allowed grow to reach confluence. Following confluence, the cells were forced to differentiate into adipocytes by the addition of differentiation medium; this medium consisted of (1) 10% FBS/DMEM (high glucose); (2) 0.5 mM methylisobutylxanthine; (3) 0.5 μM dexamethasone and (4) 10 μg/ml insulin (MDI medium). From Day 3 through Day 5, the medium was changed to post-differentiation medium consisting of 10 μg/ml insulin in 10% FBS/DMEM.
Briefly, on Day 6, cells were maintained in serum-free media containing 0.5% bovine serum albumin (BSA) for three hours and then treated with 1 μg insulin/ml plus solvent or insulin plus test material. […] Twenty-four hours later, the supernatant medium was sampled for adiponectin determination.
Adiponectin Assay—The adiponectin secreted into the medium was quantified using the Mouse Adiponectin Quantikine® Immunoassay kit with no modifications (R&D Systems, Minneapolis, Minn.).
Statistical Calculations and Interpretation—All assays were preformed in duplicate. […] Differences between the doses were determined using the student's t-test without correction for multiple comparisons; the nominal five percent probability of a type I error was selected. […]

[6] = test system: A549 pulmonary epithelial cells; experiment: PGE2 biosynthesis in A549 cells stimulated by mite dust allergen; type: cell-based, human; conditions: 10 μg/ml, mite allergen 1000 ng/ml, 18 h
Protocol: The filtrate was termed mite dust allergen and used to test for induction of PGE2 biosynthesis in A549 pulmonary epithelial cells.
Mite allergen was added to the culture medium to achieve a final concentration of 1000 ng/ml. Eighteen hours later, the media were sampled for PGE2 determination.

[7] = biological target: PI3K gamma (Homo sapiens, UniProt P48736); experiment: KinaseProfiler Assay; type: biochemical; conditions: 50 μg/ml
Sequence of PI3K gamma (P48736 whole entry): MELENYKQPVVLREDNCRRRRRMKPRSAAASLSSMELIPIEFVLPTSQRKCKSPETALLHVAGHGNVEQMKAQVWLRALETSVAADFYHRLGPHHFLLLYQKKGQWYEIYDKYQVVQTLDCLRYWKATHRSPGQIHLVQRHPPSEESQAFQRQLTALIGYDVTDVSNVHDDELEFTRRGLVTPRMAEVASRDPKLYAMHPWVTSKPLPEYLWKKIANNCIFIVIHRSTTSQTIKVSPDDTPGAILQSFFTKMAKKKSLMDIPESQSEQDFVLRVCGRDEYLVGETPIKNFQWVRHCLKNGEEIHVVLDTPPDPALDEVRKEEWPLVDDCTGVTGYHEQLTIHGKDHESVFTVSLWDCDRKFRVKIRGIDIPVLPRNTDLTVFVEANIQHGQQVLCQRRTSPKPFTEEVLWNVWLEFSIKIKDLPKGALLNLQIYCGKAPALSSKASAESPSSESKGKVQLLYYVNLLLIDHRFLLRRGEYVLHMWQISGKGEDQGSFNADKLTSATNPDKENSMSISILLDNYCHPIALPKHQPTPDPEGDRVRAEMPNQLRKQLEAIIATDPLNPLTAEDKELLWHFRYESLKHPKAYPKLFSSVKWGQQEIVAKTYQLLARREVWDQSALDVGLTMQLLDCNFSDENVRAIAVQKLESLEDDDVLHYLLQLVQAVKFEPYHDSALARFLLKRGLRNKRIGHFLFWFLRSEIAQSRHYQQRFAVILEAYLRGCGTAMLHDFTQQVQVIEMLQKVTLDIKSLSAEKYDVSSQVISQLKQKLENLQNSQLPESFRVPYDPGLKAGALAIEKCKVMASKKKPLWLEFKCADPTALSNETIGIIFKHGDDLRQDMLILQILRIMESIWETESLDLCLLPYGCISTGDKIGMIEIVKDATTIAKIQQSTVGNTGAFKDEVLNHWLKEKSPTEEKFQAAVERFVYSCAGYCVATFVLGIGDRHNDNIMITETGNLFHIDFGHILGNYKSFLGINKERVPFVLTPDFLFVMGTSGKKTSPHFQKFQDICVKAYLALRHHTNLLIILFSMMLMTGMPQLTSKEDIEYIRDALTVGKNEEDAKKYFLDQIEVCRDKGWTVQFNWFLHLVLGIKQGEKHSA

[8] = Non-fasting serum glucose and insulin in db/db diabetic mice; type: in vivo, mouse; conditions: three consecutive days, gavage
Protocol: The Model—Male, C57BLKS/J m^+/m^+Lepr^db (db/db) mice were used to assess the potential of the test materials to reduce fasting serum glucose or insulin concentrations. This strain of mice is resistant to leptin by virtue of the absence of a functioning leptin receptor.
Testing Procedure—Test substances were administered daily by gavage in 0.2% Tween-80. Serum was collected from the retroorbital sinus before the initial dose and ninety minutes after the third and final dose. Non-fasting serum glucose was determined enzymatically by the mutarotase/glucose oxidase method and serum insulin was determined by a mouse specific ELISA.
The Model—Male, C57BLKS/J m+/m+ Leprdb (db/db) mice were used to assess the potential of the test materials to reduce fasting serum glucose or insulin concentrations. This strain of mice is resistant to leptin by virtue of the absence of a functioning leptin receptor.
Testing Procedure—Test substances were administered daily by gavage in 0.2% Tween-80. Serum was collected from the retroorbital sinus before the initial dose and ninety minutes after the fifth and final dose. Non-fasting serum glucose was determined enzymatically by the mutarotase/glucose oxidase method and serum insulin was determined by a mouse specific ELISA.

[9] = test system: NF-kBp65; experiment: Nuclear translocation of NF-kBp65 in TNFα-treated 3T3-L1 adipocytes; type: cell-based, murine; conditions: three or 24 hours following TNFα
Protocol: Cell Culture and Treatment—Following differentiation 3T3-L1 adipocytes were maintained in post-differentiation medium for an additional 40 days. […] Hops derivatives and the positive control pioglitazone were tested at concentrations of 2.5, and 5.0 μg/ml. Test materials were added 1 hour prior to and nuclear extracts were prepared three and 24 hours following treatment with TNFα.
ELISA—3T3-L1 adipocytes were maintained in growth media for 40 days following differentiation. Nuclear NF-kBp65 was determined using the TransAM™ NF-kB kit from Active Motif (Carlsbad, Calif.) was used with no modifications. Jurkat nuclear extracts provided in the kit were derived from cells cultured in medium supplemented with 50 ng/ml TPA (phorbol, 12-myristate, 13 acetate) and 0.5 μM calcium ionophore A23187 for two hours at 37° C. immediately prior to harvesting.
Protein assay—Nuclear protein was quantified using the Active Motif Fluorescent Protein Quantification Kit.
Statistical Analysis—Comparisons were performed using a one-tailed Student's t-test. The probability of a type I error was set at the nominal five percent level.

[10] = test system: 3T3-L1 adipocytes; experiment: IL-6 secretion from TNFα-treated 3T3-L1 adipocytes; type: cell-based, murine; conditions: 10 ng TNFα/ml
Protocol: Interleukin-6 Assay—The IL-6 secreted into the medium was quantified using the Quantikine® Mouse IL-6 Immunoassay kit with no modifications (R&D Systems, Minneapolis, Minn.). […] All supernatant media samples were assayed undiluted.
Statistical Calculations and Interpretation—All assays were preformed in duplicate. […] Differences among the doses were determined using the student's t-test without correction for multiple comparisons; the nominal five percent probability of a type I error (one-tail) was selected.

[11] = 10 ng TNFα/ml, listed as indomethacin

Cc1c(C)c2c(c(C)c1O)CCC(C)(COc1ccc(CC3SC(=O)NC3=O)cc1)O2 (stereo not shown) [Troglitazone]
maximum increase of adiponectin secretion from TNFα solvent control ([1]; 10 ng TNFα/ml): 51%
inhibition at 10 µg/mL ([2]; Mus musculus, 3T3-L1, 10.0 μg/ml, read-out: % Inhibition (maximum) of IL-6 secretion): 69%
% Stimulation (maximum) of adiponectin secretion [3]: 15%

CC(=O)Oc1ccccc1C(=O)O [Aspirin]
adiponectin secretion [3]: failed to induce adiponectin secretion

CC(C)CCC1=C(O)C(C(=O)C(C)C)=C(O)C(CCC(C)C)(CCC(C)C)C1=O [hexahydrocolupulone]
adipogenic response of hops compounds [4]: failed to elicit a lipogenic response greater than the solvent controls
concentration for half maximal adiponectin secretion ([5]; Hofstee plot): 3.2 µg/mL

Beta acids
Percent PGE2 Inhibition [6]: 83%
adipogenic response of hops compounds [4]: comparable to indomethacin and troglitazone

COc1cc(O)c(CC=C(C)C)c(O)c1C(=O)/C=C/c1ccc(O)cc1 [xanthohumol]
PI3K isoform preference [7]: more inhibitory to PI3K-γ than to PI3K-β or PI3K-δ
adipogenic response of hops compounds [4]: comparable to indomethacin and troglitazone

CC(C)CCC1=C(O)C(C(=O)C(C)C)=C(O)C(CCC(C)C)(CCC(C)C)C1=O [Hexahydrocolupulone (HHCL)]
Adiponectin/IL-6 ([5]; 50.0 μg/ml, ratio of indices): 0.60#

CC(C)Cc1ccc(C(C)C(=O)O)cc1 (stereo not shown) [ibuprofen]
inhibition at 0.625 µg/mL ([2]; Mus musculus, 3T3-L1, 0.625 μg/ml, read-out: % Inhibition (maximum) of IL-6 secretion): 54%
% Stimulation (maximum) of adiponectin secretion [3]: 22%

O=C(O)c1ccccc1O [salicylic acid]
IL-6 Index ([2]; 50.0 μg/ml (dose providing maximum inhibition)): 0.52*
inhibition at 50 µg/mL ([2]; Mus musculus, 3T3-L1, 50.0 μg/ml, read-out: % Inhibition (maximum) of IL-6 secretion): 48%
adiponectin secretion [3]: failed to induce adiponectin secretion

CN(C)C(=N)N=C(N)N [metformin, Metformin]
lipogenic index ([4]; 50 μg test material/ml, observed): 0.79
serum glucose relative to controls [8]: decreased both serum glucose and insulin concentrations

CCc1ccc(CCOc2ccc(CC3SC(=O)NC3=O)cc2)nc1 (stereo not shown) [Pioglitazone]
maximum increase of adiponectin secretion from TNFα solvent control ([1]; 10 ng TNFα/ml): 80%
Adiponectin Index (maximum over four doses) ([1]; 10 ng TNFα/ml, Example 17): 1.47
Adiponectin Index Observed ([1]; 1.0 μg/ml, indexed to TNFα control): 1.80
IL-6 Index ([2]; 5.00 μg/ml (dose providing maximum inhibition)): 0.37*
inhibition at 5 µg/mL ([2]; Mus musculus, 3T3-L1, 5.00 μg/ml, read-out: % Inhibition (maximum) of IL-6 secretion): 63%
nuclear NF-kBp65 [9]: did not inhibit

COc1ccc2c(c1)c(CC(=O)O)c(C)n2C(=O)c1ccc(Cl)cc1 [Indomethacin, indomethacin]
adiponectin secretion ([1]; 0.5 ng TNFα/ml, 50 μg/ml): dose-dependant decrease in adiponectin secretion
Concentration of maximum adiponectin secretion ([1]; 10 ng TNFα/ml): 5.0 µg/mL
Concentration of maximum adiponectin secretion [1, 11]: 2.5 µg/mL
maximum increase of adiponectin secretion from TNFα solvent control [1, 11]: 94%
Adiponectin/IL-6 ([1]; […], 10 ng TNFα/ml): 2.00*
IL-6 secretion in the presence of TNFα [10]: no anti-inflammatory effect
% Inhibition (maximum) of IL-6 secretion ([2]; 5.00 μg/ml): 53* %
